# Measurements from PMC1097768 (Nucleic Acids Research, 2005).
# Molecular target: mNdK (nucleoside diphosphate kinase) (Mycobacterium tuberculosis, UniProt P9WJH7)
# Assay: FRET molecular beacon nuclease assay with FP1T, Lineweaver-Burk analysis
# Type: biochemical
# Chain of mNdK (nucleoside diphosphate kinase) (P9WJH7 whole entry): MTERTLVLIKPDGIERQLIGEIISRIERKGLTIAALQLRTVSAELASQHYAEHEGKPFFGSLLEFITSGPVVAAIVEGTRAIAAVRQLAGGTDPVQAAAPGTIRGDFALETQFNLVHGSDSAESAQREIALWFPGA
smiles,measurement,value
Nc1nc2c(ncn2[C@@H]2O[C@H](COP(=O)(O)OP(=O)(O)O)[C@@H](O)[C@H]2O)c(=O)[nH]1 [GDP],Ki,~1900 µM
